Converted amounts (≈) assume the structure as drawn. Where two headings read alike, the source gives them in different places. One block for each compound: values may come before it.
Assays:
Assay in all cases: agar dilution MIC assay of anaerobic bacteria
L. casei = format: cell-based, Lactobacillus casei; conditions: Lacticaseibacillus casei
Method: (§1) Each compound was assayed against a panel of anaerobic bacteria in culture, consisting of Gram-positive organisms, such as Lactobacilli, Bifidobacteria, Clostridium spp., and Gram-negative bacteria, such as […] fragilis spp., according to guidelines of the Clinical and Laboratory Standards Institute (CLSI document M11-A7, CLSI, Wayne, Pa., 2007). […] One tenth mL of diluted bacteria containing 500-1000 colony-forming units (CFU) was plated and spread, and the plates incubated at 37° C. for 24-48 hours. MIC (minimum inhibitory concentration) is equivalent to the lowest concentration in μg/ml at which growth, i.e., colony formation, is not observed. […] Bacteria were assayed using a reference agar dilution method. Drug dilutions and drug-supplemented agar plates were prepared manually. The test organisms were maintained frozen at −80° C. The isolates were sub-cultured on Supplemented Brucella Agar (SBA) plates in a Bactron II anaerobic chamber and incubated for 48 hours at 35-36° C. in the Bactron II anaerobe chamber. Following inoculation, the drug-supplemented plates were incubated at 35° C. for 48 hours in the anaerobic environment (5% hydrogen, 5% carbon dioxide, 90% nitrogen) of the Bactron II. The MIC in μg/ml was read per Clinical and Laboratory Standards Institute guidelines.

Ba. fragilis = format: cell-based; conditions: Bacteroides fragilis
Method: as §1

L. acidophilus = format: cell-based; conditions: Lactobacillus acidophilus
Method: as §1

Bi. brevi = format: cell-based, Bifidobacterium brevi
Method: as §1

Bi. longum = format: cell-based, Bifidobacterium longum; conditions: Bifidobacterium longum, read-out: MIC
Method: as §1

E. lentum = format: cell-based, Eubacterium lentum; conditions: Eggerthella lenta, read-out: MIC
Method: as §1

C. difficile = format: cell-based, Clostridium difficile; conditions: Clostridioides difficile, read-out: MIC
Method: as §1

[1] = Ba. fragilis, Micromyx Number 0123 (ATCC strain), Gram negative, Table 1
[2] = Bifidobacterium, Bi. brevi, Micromyx Number 3967, Table 1
[3] = Bi. longum, Micromyx Number 3968, Table 1
[4] = E. lentum, Micromyx Number 1274, Table 1
[5] = C. difficile, Micromyx Number 1209, Table 1
[6] = C. difficile, Micromyx Number 3579, Table 1
[7] = C. difficile, Micromyx Number 3580, Table 1
[8] = C. difficile, Micromyx Number 3581, Table 1
[9] = C. difficile, Micromyx Number 3582, Table 1
[10] = C. difficile, Micromyx Number 3584, Table 1
[11] = C. difficile, Micromyx Number 3585, Table 1
[12] = C. difficile, Micromyx Number 3586, Table 1
[13] = C. difficile, Micromyx Number 3587, Table 1
[14] = C. difficile, Micromyx Number 3588, Table 1
[15] = C. difficile, Micromyx Number 3589, Table 1
[16] = C. difficile, Micromyx Number 3590, Table 1
[17] = C. difficile, Micromyx Number 3591, Table 1
[18] = C. difficile, Micromyx Number 3593, Table 1
[19] = C. difficile, Micromyx Number 3594, Table 1
[20] = C. difficile, Micromyx Number 3595, Table 1
[21] = C. difficile, Micromyx Number 4381 (ATCC strain), Table 1

MIC (L. casei; Strain no. 1722 (ATCC strain), Table 3): > 32 mg/L
MIC (Ba. fragilis; B. fragilis, Strain no. 0123 (ATCC strain), Gram-negative (control), Table 3): > 32 mg/L
MIC (L. acidophilus; Strain no. 0681, Table 3): 16 mg/L (≈ 34.2 µM)
MIC (Bi. brevi; Bifidobacterium breve, Bi. Breve, Strain no. 3967 (ATCC strain), Table 3): > 32 mg/L
MIC (Bi. longum; Bi. Longum, Strain no. 3968 (ATCC strain), Table 3): > 32 mg/L
MIC (E. lentum; Eu. Lentum, Strain no. 1274 (ATCC strain), Table 3): > 32 mg/L
MIC (C. difficile; C. diff., Strain no. 3580, Table 3): 16 mg/L (≈ 34.2 µM)
MIC (C. difficile; C. diff., Strain no. 3581, Table 3): 8 mg/L (≈ 17.1 µM)
MIC (C. difficile; C. diff., Strain no. 3582, Table 3): 16 mg/L (≈ 34.2 µM)
MIC (C. difficile; C. diff., Strain no. 3584, Table 3): 4 mg/L (≈ 8.56 µM)
MIC (C. difficile; C. diff., Strain no. 3585, Table 3): 16 mg/L (≈ 34.2 µM)
MIC (C. difficile; C. diff., Strain no. 3586, Table 3): 4 mg/L (≈ 8.56 µM)
MIC (C. difficile; C. diff., Strain no. 3587, Table 3): 8 mg/L (≈ 17.1 µM)
MIC (C. difficile; C. diff., Strain no. 3588, Table 3): 1 mg/L (≈ 2.14 µM)
MIC (C. difficile; C. diff., Strain no. 3589, Table 3): 16 mg/L (≈ 34.2 µM)
MIC (C. difficile; C. diff., Strain no. 4381 (ATCC strain), Table 3): 8 mg/L (≈ 17.1 µM)
Structure (SMILES): O=c1[nH]c(NCc2ccc(Cl)c(Cl)c2)nc2ncn(CCOCCN3CCOCC3)c12 [Compound 360A]

MIC (L. casei; Micromyx Number 1722, Table 1): 2 mg/L (≈ 4.71 µM)
MIC (Ba. fragilis; [1]): 1 mg/L (≈ 2.35 µM)
MIC (L. acidophilus; Micromyx Number 0681, Table 1): 4 mg/L (≈ 9.41 µM)
MIC (Bi. brevi; [2]): 0.12 mg/L (≈ 0.282 µM)
MIC (Bi. longum; [3]): ≤ 0.03 mg/L
MIC (E. lentum; [4]): 0.12 mg/L (≈ 0.282 µM)
MIC (C. difficile; [5]): 4 mg/L (≈ 9.41 µM)
MIC (C. difficile; [6]): 16 mg/L (≈ 37.6 µM)
MIC (C. difficile; [7]): 8 mg/L (≈ 18.8 µM)
MIC (C. difficile; [8]): > 16 mg/L
MIC (C. difficile; [9]): 0.5 mg/L (≈ 1.18 µM)
MIC (C. difficile; [10]): 8 mg/L (≈ 18.8 µM)
MIC (C. difficile; [11]): 8 mg/L (≈ 18.8 µM)
MIC (C. difficile; [12]): 8 mg/L (≈ 18.8 µM)
MIC (C. difficile; [13]): 8 mg/L (≈ 18.8 µM)
MIC (C. difficile; [14]): 8 mg/L (≈ 18.8 µM)
MIC (C. difficile; [15]): > 16 mg/L
MIC (C. difficile; [16]): 8 mg/L (≈ 18.8 µM)
MIC (C. difficile; [17]): 8 mg/L (≈ 18.8 µM)
MIC (C. difficile; [18]): 8 mg/L (≈ 18.8 µM)
MIC (C. difficile; [19]): > 16 mg/L
MIC (C. difficile; [20]): > 16 mg/L
MIC (C. difficile; [21]): 4 mg/L (≈ 9.41 µM)
Structure (SMILES): CCC[C@@H]1C[C@@H](C(=O)N[C@@H]([C@H]2O[C@H](SC)[C@H](O)[C@@H](O)[C@H]2O)[C@H](C)Cl)N(C)C1 [clindamycin, reference compound]

Structure (SMILES): CN[C@H](CC(C)C)C(=O)N[C@H]1C(=O)N[C@@H](CC(N)=O)C(=O)N[C@H]2C(=O)N[C@H]3C(=O)N[C@H](C(=O)N[C@H](C(=O)O)c4cc(O)cc(O)c4-c4cc3ccc4O)[C@H](O)c3ccc(c(Cl)c3)Oc3cc2cc(c3O[C@@H]2O[C@H](CO)[C@@H](O)[C@H](O)[C@H]2O[C@H]2C[C@](C)(N)[C@H](O)[C@H](C)O2)Oc2ccc(cc2Cl)[C@H]1O [vancomycin, reference compound]
MIC (L. casei; Micromyx Number 1722, Table 1): > 16 mg/L
MIC (Ba. fragilis; B. fragilis, Micromyx Number 0123 (ATCC strain), Table 2): 32 mg/L (≈ 22.1 µM)
MIC (Ba. fragilis; [1]): > 16 mg/L
MIC (L. acidophilus; Micromyx Number 0681, Table 1): 2 mg/L (≈ 1.38 µM)
MIC (Bi. brevi; [2]): 2 mg/L (≈ 1.38 µM)
MIC (Bi. longum; [3]): 0.5 mg/L (≈ 0.345 µM)
MIC (E. lentum; [4]): 2 mg/L (≈ 1.38 µM)
MIC (C. difficile; C. diff. Strain no. 18285, Table 4): 1 mg/L (≈ 0.69 µM)
MIC (C. difficile; C. diff. Strain no. 19265, Table 4): 1 mg/L (≈ 0.69 µM)
MIC (C. difficile; C. diff. Strain no. 19273, Table 4): 1 mg/L (≈ 0.69 µM)
MIC (C. difficile; C. diff. Strain no. 19281, Table 4): 1 mg/L (≈ 0.69 µM)
MIC (C. difficile; C. diff. Strain no. 19291, Table 4): 1 mg/L (≈ 0.69 µM)
MIC (C. difficile; C. diff. Strain no. 19369, Table 4): 1 mg/L (≈ 0.69 µM)
MIC (C. difficile; C. diff. Strain no. 19382, Table 4): 4 mg/L (≈ 2.76 µM)
MIC (C. difficile; C. diff. Strain no. 19540, Table 4): 1 mg/L (≈ 0.69 µM)
MIC (C. difficile; C. diff. Strain no. 19580, Table 4): 4 mg/L (≈ 2.76 µM)
MIC (C. difficile; C. diff. Strain no. 19680, Table 4): 1 mg/L (≈ 0.69 µM)
MIC (C. difficile; C. diff. Strain no. 19681, Table 4): 2 mg/L (≈ 1.38 µM)
MIC (C. difficile; C. diff. Strain no. 19683, Table 4): 8 mg/L (≈ 5.52 µM)
MIC (C. difficile; C. diff. Strain no. 19687, Table 4): 1 mg/L (≈ 0.69 µM)
MIC (C. difficile; C. diff. Strain no. 20066, Table 4): 4 mg/L (≈ 2.76 µM)
MIC (C. difficile; C. diff. Strain no. 20152, Table 4): 1 mg/L (≈ 0.69 µM)
MIC (C. difficile; C. diff. Strain no. 20307, Table 4): 2 mg/L (≈ 1.38 µM)
MIC (C. difficile; C. diff. Strain no. 20494, Table 4): 4 mg/L (≈ 2.76 µM)
MIC (C. difficile; C. diff. Strain no. 20680, Table 4): 1 mg/L (≈ 0.69 µM)
MIC (C. difficile; C. diff. Strain no. 20934, Table 4): 4 mg/L (≈ 2.76 µM)
MIC (C. difficile; C. diff. Strain no. 21099, Table 4): 2 mg/L (≈ 1.38 µM)
MIC (C. difficile; C. diff., Micromyx Number 3579, Table 2): 1 mg/L (≈ 0.69 µM)
MIC (C. difficile; C. diff., Micromyx Number 3580, Table 2): 1 mg/L (≈ 0.69 µM)
MIC (C. difficile; C. diff., Micromyx Number 3581, Table 2): 4 mg/L (≈ 2.76 µM)
MIC (C. difficile; C. diff., Micromyx Number 3582 (ATCC strain), Table 2): 2 mg/L (≈ 1.38 µM)
MIC (C. difficile; [5]): 1 mg/L (≈ 0.69 µM)
MIC (C. difficile; [6]): 1 mg/L (≈ 0.69 µM)
MIC (C. difficile; [7]): 1 mg/L (≈ 0.69 µM)
MIC (C. difficile; [8]): 1 mg/L (≈ 0.69 µM)
MIC (C. difficile; [9]): 0.25 mg/L (≈ 0.173 µM)
MIC (C. difficile; [10]): 0.5 mg/L (≈ 0.345 µM)
MIC (C. difficile; [11]): 0.5 mg/L (≈ 0.345 µM)
MIC (C. difficile; [12]): 0.5 mg/L (≈ 0.345 µM)
MIC (C. difficile; [13]): 1 mg/L (≈ 0.69 µM)
MIC (C. difficile; [14]): 2 mg/L (≈ 1.38 µM)
MIC (C. difficile; [15]): 0.5 mg/L (≈ 0.345 µM)
MIC (C. difficile; [16]): 1 mg/L (≈ 0.69 µM)
MIC (C. difficile; [17]): 2 mg/L (≈ 1.38 µM)
MIC (C. difficile; [18]): 0.5 mg/L (≈ 0.345 µM)
MIC (C. difficile; [19]): 1 mg/L (≈ 0.69 µM)
MIC (C. difficile; [20]): 1 mg/L (≈ 0.69 µM)
MIC (C. difficile; [21]): 1 mg/L (≈ 0.69 µM)

Reference: patent US8796292B2, “Selective antibacterials for clostridium difficile infections” (GLSynthesis Inc., priority 2009, dated 2014)
